Format in all cases: cell-based, human
Common to all, as to settings: epinephrine 56 nM alone, 9 days

Assay [1] concerns loricrin. Briefly: Epinephrine-induced stress model in skin explants, loricrin immunostaining. How it is done:
(§1) To study the potential involvement of ORs in skin response to chronic stress, an ex vivo epinephrine-induced stress model was designed. Three different markers, known to increase under stress conditions, were measured to estimate the stress response of skin (Figure 3A). G6PDH was used as a marker for cell metabolism, loricrin for cell differentiation, and γH2AX for DNA damage.
(§2) For immunohistochemical staining on human skin, 5-μm-thick sections were made. The same primary antibodies were used (anti-OR10A6 (1:200; Abcam, #ab129837), anti-OR11H4 (1:200; ThermoFisher, #PA5-562685), anti-OR2AG2 (1:100; ThermoFisher, #PA5-538166)). […] Image processing was performed using ImageJ 2.0 software. For primary G6PDH (1:100 dilution; Sigma Aldrich, St. Louis, MO, USA, #HPA000247), loricrine (1:1600 dilution; Covance, Princeton, NJ, USA, #PRB-145P), γH2AX (1:800; Abcam, Cambridge, UK, #ab26350) antibodies staining, tissue cryosections were […] and immunostaining was performed using an automated slide processing system (Autostainer Dako, Agilent, Santa Clara, CA, USA). […] Microscopical observations were realized using an Olympus BX43 microscope. Photographs were digitized with a numeric DP72 Olympus camera and CellD storing software (Waltham, MA, USA). The detailed protocols were described in the supplementary materials. […]

Assay [2] deals with γH2AX. Kind of assay: Epinephrine-induced stress model in skin explants, γH2AX immunostaining. How it is done: as §1, §2
Assay [3] relates to G6PDH. Briefly: Epinephrine-induced stress model in skin explants, G6PDH immunostaining. How it is done: as §1, §2
In assay [4] the test system is OR10A6 mRNA. Briefly: OR10A6 mRNA expression in skin explants (RT-qPCR). Here is the method:
(§3) For NHEKs, total RNA was isolated and purified using RNeasy Mini Kit (Qiagen, Hilden, Germany, #74104) following the manufacturer’s protocol. For RNA extraction from skin sections, Trizol (ThermoFisher, Waltham, MA, USA, #15596026) was used following the manufacturer’s protocol. Purity was determined with commercial Agilent kit RNA 6000 Nano Kit (Agilent, Santa Clara, CA, USA, #5067-1511) using Agilent 2100 Bioanalyzer according to the manufacturer’s recommendations and the concentration was quantified with a Nanodrop 2000c (ThermoFisher, Waltham, MA, USA). Real-time quantitative polymerase chain reaction (qRT-PCR) was run in triplicate using TaqMan™ Fast Advanced Master Mix (ThermoFisher, Waltham, MA, USA, #4444557) and gene Expression Assay transcripts (ThermoFisher, Waltham, MA, USA) on the AriaMx Real-time PCR System (Agilent, Santa Clara, CA, USA) according to the manufacturer’s recommendations. Real-time quantification plots and Ct values were collected and stored in AriaMx software (version 2.1). […]
(§4) Human skin explants were recovered from the abdominal tissue of a person and kept in a culture medium at 37 °C, under 5% CO2. […] Each condition was evaluated on 3 different explants and compared to control (untreated explant). […]
(§5) System (Agilent) according to the manufacturer’s recommendations. Real-time quantification plots and Ct values were collected and stored in AriaMx software. […]
Background: Real-time PCR tracks product formation cycle by cycle.

The test system of assay [5] is OR2AG2 mRNA. Kind of assay: OR2AG2 mRNA expression in skin explants (RT-qPCR). How it is done: as §3, §4, §5
In assay [6] the test system is OR11H4 mRNA. Kind of assay: OR11H4 mRNA expression in skin explants (RT-qPCR). Here is the method:
as §3, §4, §5

Assay [7] concerns OR10A6 protein. Briefly: OR10A6 protein expression in skin explants (immunohistochemistry). How it is done:
(§6) For immunohistochemical staining on human skin, 5-μm-thick sections were made. The same primary antibodies were used (anti-OR10A6 (1:200; Abcam, #ab129837), anti-OR11H4 (1:200; ThermoFisher, #PA5-562685), anti-OR2AG2 (1:100; ThermoFisher, #PA5-538166)). […] Image processing was performed using ImageJ 2.0 software. […]
as §4
(§7) mounting medium (Santa Cruz, UltraCruz Mounting Medium # sc-24941). […] Cells were observed using a Zeiss microscope and images were analyzed with ImageJ 2.0 software. […]
(§8) observations were realized using an Olympus BX43 microscope. […] Quantification of the proteins of interest (stained purple) was performed through microscopic observation and image analysis. Results were expressed as a percentage of untreated control explants. The relative change (Δ%) between the two tested conditions was also calculated. […]
(§9) AlexaFluor 546 (ThermoFisher, #A11035) goat anti-rabbit IgG secondary antibody, diluted in 1:800 in PBS 1X with 1% BSA, for 1h at room temperature. […] The green channel was used to quantify the fluorescence resulting from OR labelling in the same region. […]

The subject of assay [8] is OR2AG2 protein. Briefly: OR2AG2 protein expression in skin explants (immunohistochemistry). How it is done: as §6, §4, §7, §8, §9
Assay [9] deals with OR11H4 protein. Briefly: OR11H4 protein expression in skin explants (immunohistochemistry). How it is done: as §6, §4, §7, §8, §9

Consider one molecule from publication PMC7587601, “A Rose Extract Protects the Skin against Stress Mediators: A Potential Role of Olfactory Receptors” (Molecules, 2020).

As for `CNC[C@H](O)c1ccc(O)c(O)c1` [epinephrine], the “loricrin expression, fold change” value in assay [1] came to 2.3 ± 1.17. The “γH2AX expression, fold change” value in [2] came to 1.7 ± 0.47. The “G6PDH expression, fold change” value in assay [3] was determined as 1.26 ± 0.19. In [4], the “OR10A6 mRNA level, fold change” value worked out at 0.45 ± 0.2. Also, the “OR2AG2 mRNA level, fold change” value in assay [5] is listed as 0.51 ± 0.3. For the same molecule, the “OR11H4 mRNA level, fold change” value in assay [6] came to 0.52 ± 0.2. In addition, the “OR10A6 protein expression, relative intensity staining” value in assay [7] was 0.77 ± 0.34. Also, the “OR2AG2 protein expression, relative intensity staining” value in assay [8] worked out at 0.81 ± 0.15. The OR11H4 protein expression result in assay [9] is “No change”.
